Laboratory results as given in patent US12077503B2, “Substituted cyclic amides and their use as herbicides” (FMC CORPORATION, priority 2015, dated 2024).

Columns and labels:
Assay type in all cases: in vivo
[1] = tested on: ducksalad (Heteranthera limosa); assay: Test B flooded paddy test; conditions: Flood, 250 g ai/ha; 0 to 100 scale where 0 is no effect and 100 is complete control; 13 to 15 d
Procedure, shortened: (§1)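 Plants at 2-leaf stage flooded to 3 cm above soil, with compounds applied directly to paddy water and that depth maintained. Plants kept in greenhouse 13–15 d. Visual rating versus controls on a 0 (no effect) to 100 (complete control) scale.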

[2] = tested on: barnyardgrass (Echinochloa crus-galli); assay: Test B flooded paddy test; conditions: Flood, 250 g ai/ha; 0 to 100 scale where 0 is no effect and 100 is complete control; 13 to 15 d
Procedure, shortened: as §1

[3] = tested on: sedge, umbrella (small-flower umbrella sedge, Cyperus difformis); assay: Test B flooded paddy test; conditions: Flood, 250 g ai/ha; 0 to 100 scale where 0 is no effect and 100 is complete control; 13 to 15 d
Procedure, shortened: as §1

rice (Oryra sativa) = assay: Test B flooded paddy test; conditions: Flood, 250 g ai/ha; 0 to 100 scale where 0 is no effect and 100 is complete control; 13 to 15 d
Procedure, shortened: as §1

[4] = tested on: ragweed (common ragweed, Ambrosia elatior); assay: Test A postemergence
Procedure, shortened: (§2)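 Seeds sprayed preemergence with a directed soil spray, or plants at 2 to 10 cm height and one- to two-leaf stage sprayed postemergence, with test chemicals in a non-phytotoxic solvent mixture containing surfactant, in loam soil–sand blend. Injury rated visually against untreated controls after about 10 d in greenhouse, 0 (no effect) to 100 (complete control).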

[5] = tested on: giant foxtail (Setaria faberii); assay: Test A postemergence
Procedure, shortened: as §2

corn (Zea mays) = assay: Test A postemergence
Procedure, shortened: as §2

[6] = tested on: blackgrass (Alopecurus myosuroides); assay: Test A postemergence
Procedure, shortened: as §2

[7] = tested on: pigweed (Amaranthus retroflexus); assay: Test A postemergence
Procedure, shortened: as §2

[8] = tested on: barnyardgrass (Echinochloa crus-galli); assay: Test A postemergence
Procedure, shortened: as §2

Kochia (Kochia scoparia) [9] = assay: Test A postemergence
Procedure, shortened: as §2

[10] = tested on: ryegrass, Italian (Italian ryegrass, Lolium multiflorum); assay: Test A postemergence
Procedure, shortened: as §2

[11] = tested on: Galium (catchweed bedstraw, Galium aparine); assay: Test A postemergence
Procedure, shortened: as §2

[12] = tested on: wheat (Triticum aestivum); assay: Test A postemergence
Procedure, shortened: as §2

[13] = tested on: ragweed (common ragweed, Ambrosia elatior); assay: Test A preemergence; conditions: Preemergence
Procedure, shortened: as §2

[14] = tested on: giant foxtail (Setaria faberii); assay: Test A preemergence; conditions: Preemergence
Procedure, shortened: as §2

[15] = tested on: pigweed (Amaranthus retroflexus); assay: Test A preemergence; conditions: Preemergence
[16] = tested on: barnyardgrass (Echinochloa crus-galli); assay: Test A preemergence; conditions: Preemergence
Procedure, shortened: as §2

Kochia (Kochia scoparia) [17] = assay: Test A preemergence; conditions: Preemergence
Procedure, shortened: as §2

[18] = tested on: ryegrass, Italian (Italian ryegrass, Lolium multiflorum); assay: Test A preemergence; conditions: Preemergence
Procedure, shortened: as §2

rice (Oryza sativa) = assay: Test C flooded paddy test; conditions: Flood, 0 is no effect, 100 is complete control
From the text: (§3) Plant species in the flooded paddy test consisted of rice (Oryza sativa), sedge, umbrella (small-flower umbrella sedge, Cyperus difformis), ducksalad (Heteranthera limosa), and barnyardgrass (Echinochloa crus-galli) grown to the 2-leaf stage for testing. At time of treatment, test pots were flooded to 3 cm above the soil surface, treated by application of test compounds directly to the paddy water, and then maintained at that water depth for the duration of the test. Treated plants and controls were maintained in a greenhouse for 13 to 15 d, after which time all species were compared to controls and visually evaluated. Plant response ratings, summarized in Table C, are based on a scale of 0 to 100 where 0 is no effect and 100 is complete control. A dash (-) response means no test result.

[19] = tested on: ducksalad (Heteranthera limosa); assay: Test C flooded paddy test; conditions: Flood, 0 is no effect, 100 is complete control
From the text: as §3

[20] = tested on: barnyardgrass (Echinochloa crus-galli); assay: Test C flooded paddy test; conditions: Flood, 0 is no effect, 100 is complete control
From the text: as §3

[21] = tested on: sedge, umbrella (small-flower umbrella sedge, Cyperus difformis); assay: Test C flooded paddy test; conditions: Flood, 0 is no effect, 100 is complete control
From the text: as §3

[22] = 125 g ai/ha, postemergence, visual injury rating on 0 to 100 scale (0 no effect, 100 complete control), approx. 10 d
[23] = Postemergence, 500 g ai/ha, 0 to 100 scale where 0 is no effect and 100 is complete control
[24] = 125 g ai/ha, visual injury after approximately 10 d, 0 to 100 scale where 0 is no effect and 100 is complete control
[25] = 500 g ai/ha, visual injury approx. 10 d

O=C1NCC(c2cccc(F)c2F)C1C(=O)Nc1cccc(F)c1F (stereo not shown) [Compound 487]
Plant response rating, Ducksalad [1]: 95 | Plant response rating, Barnyardgrass [2]: 75 | Plant response rating, Sedge, Umbrella [3]: 0 | Plant response rating, Rice (rice (Oryra sativa)): 0 | Ragweed plant response rating [4, 22]: 0 | Plant response rating, Ragweed [4, 23]: 0 | Foxtail, Giant plant response rating [5, 22]: 80 | Plant response rating, Foxtail, Giant [5, 23]: 90 | Corn plant response rating (corn (Zea mays); [22]): 0 | Plant response rating, Corn (corn (Zea mays); [23]): 20 | Blackgrass plant response rating [6, 22]: 0 | Plant response rating, Blackgrass [6, 23]: 30 | Pigweed plant response rating [7, 22]: 0 | Plant response rating, Pigweed [7, 23]: 20 | Barnyardgrass plant response rating [8, 22]: 80 | Plant response rating, Barnyardgrass [8, 23]: 90 | Kochia plant response rating (Kochia (Kochia scoparia) [9]; [22]): 0 | Plant response rating, Kochia (Kochia (Kochia scoparia) [9]; [23]): 30 | Ryegrass, Italian plant response rating [10, 22]: 0 | Plant response rating, Ryegrass, Italian [10, 23]: 20 | Galium plant response rating [11, 22]: 0 | Plant response rating, Galium [11, 23]: 0 | Wheat plant response rating [12, 22]: 0 | Plant response rating, Wheat [12, 23]: 20 | Plant response rating, Ragweed [13, 24]: 30 | Ragweed plant response rating (0 to 100 scale, 0 is no effect, 100 is complete control) [13, 25]: 30 | Plant response rating, Foxtail, Giant [14, 24]: 90 | Foxtail, Giant plant response rating (0 to 100 scale, 0 is no effect, 100 is complete control) [14, 25]: 90 | Plant response rating, Pigweed [15, 24]: 0 | Pigweed plant response rating (0 to 100 scale, 0 is no effect, 100 is complete control) [15, 25]: 30 | Plant response rating, Barnyardgrass [16, 24]: 90 | Barnyardgrass plant response rating (0 to 100 scale, 0 is no effect, 100 is complete control) [16, 25]: 90 | Plant response rating, Kochia (Kochia (Kochia scoparia) [17]; [24]): 30 | Kochia plant response rating (0 to 100 scale, 0 is no effect, 100 is complete control) (Kochia (Kochia scoparia) [17]; [25]): 60 | Plant response rating, Ryegrass, Italian [18, 24]: 20 | Ryegrass, Italian plant response rating (0 to 100 scale, 0 is no effect, 100 is complete control) [18, 25]: 40 | Plant response rating (scale of 0 to 100), Rice (rice (Oryza sativa); 31 g ai/ha): 0 | Plant response rating (scale of 0 to 100), Rice (rice (Oryza sativa); 62 g ai/ha): 0 | Plant response rating (scale of 0 to 100), Rice (rice (Oryza sativa); 125 g ai/ha): 0 | Plant response rating (scale of 0 to 100), Rice (rice (Oryza sativa); 250 g ai/ha): 0 | Plant response rating (scale of 0 to 100), Ducksalad ([19]; 31 g ai/ha): 30 | Plant response rating (scale of 0 to 100), Ducksalad ([19]; 62 g ai/ha): 45 | Plant response rating (scale of 0 to 100), Ducksalad ([19]; 125 g ai/ha): 85 | Plant response rating (scale of 0 to 100), Ducksalad ([19]; 250 g ai/ha): 100 | Plant response rating (scale of 0 to 100), Barnyardgrass ([20]; 31 g ai/ha): 0 | Plant response rating (scale of 0 to 100), Barnyardgrass ([20]; 62 g ai/ha): 15 | Plant response rating (scale of 0 to 100), Barnyardgrass ([20]; 125 g ai/ha): 20 | Plant response rating (scale of 0 to 100), Barnyardgrass ([20]; 250 g ai/ha): 65 | Plant response rating (scale of 0 to 100), Sedge, Umbrella ([21]; 31 g ai/ha): 0 | Plant response rating (scale of 0 to 100), Sedge, Umbrella ([21]; 62 g ai/ha): 0 | Plant response rating (scale of 0 to 100), Sedge, Umbrella ([21]; 125 g ai/ha): 0 | Plant response rating (scale of 0 to 100), Sedge, Umbrella ([21]; 250 g ai/ha): 0
